Data on one compound can be found in PMC5476731, “Molecular Basis of N,N-Diethyl-3-Methylbenzamide (DEET) in Repelling the Common Bed Bug, Cimex lectularius” (Frontiers in Physiology, 2017).

Common to all, as to test: two-electrode voltage clamp, Xenopus oocytes
What all share (format): cell-based, Cimex lectularius
Background: In two-electrode clamp one electrode senses voltage and the other passes current.

In one test the test system is T1, OR37/ORCO.
T1 construct: cRNA (pT7Ts vector) co-injected with ORCO into Xenopus laevis oocytes; with Odorant receptor coreceptor
The note with it: agonist; co-expressed ORCO; -80 mV; pH 7.6 Ringer; text b25 prints 6.5 × 10^−6 (discrepant).

For another test, the system named is T2, OR20/ORCO.
T2 construct: cRNA (pT7Ts vector) co-injected with ORCO into Xenopus laevis oocytes; with Odorant receptor coreceptor
To be noted: agonist; co-expressed ORCO; -80 mV; pH 7.6 Ringer; text rounds to 7.5 × 10^−6.

The test system of the next test is T3, OR36/ORCO.
T3 construct: cRNA (pT7Ts vector) co-injected with ORCO into Xenopus laevis oocytes; with Odorant receptor coreceptor
To be noted: agonist; co-expressed ORCO; -80 mV; pH 7.6 Ringer; text rounds to 7.1 × 10^−6.

Consider `CCN(CC)C(=O)c1cccc(C)c1` [DEET, N,N-Diethyl-3-Methylbenzamide], for which the EC50 in the test with OR37/ORCO is reported as 6.684 × 10^−6 v/v; in the test on OR20/ORCO, 7.468 × 10^−6 v/v; in the test on OR36/ORCO it was 7.096 × 10^−6 v/v.
